Experimental data reported in publication PMC11372837, “Albumin-Mediated Drug Uptake by Organic Anion Transporter 1/3 Is Real: Implications for the Prediction of Active Renal Secretion Clearance” (Molecular Pharmaceutics, 2024).
“And” between values parts separate entries of the source, which are not always exact repeats. Equal entries are not always repeated. Where two headings read alike, the source gives them in different places.

What was measured:
OAT1 = molecular target: T1, OAT1 (Homo sapiens, UniProt Q4U2R8); experiment: OAT1 uptake study in ciPTEC-OAT1; conditions: for ratio of CLint,u,active (R) (HSA/control) 1%: OAT1, 1% HSA vs control; for ratio of CLint,u,active (R) (HSA/control) 1% / ratio of CLint,u,active (R) (HSA/control) 4%: unbound concentration kept constant; for ratio of CLint,u,active (R) (HSA/control) 4%: OAT1, 4% HSA vs control; for OAT1 substrate status (uptake in ciPTEC-OAT1): control vs probenecid 300 μM; for Vb,max OAT1, Active and Passive Uptake: eq 4 fitted to CLint,u; for Vb,max OAT1, Active and Passive Uptake / Vb,max OAT1, Active Uptake Only: mean ± S.D.; for Vb,max OAT1, Active Uptake Only: eq 4 fitted to CLint,u,active, Kd,m fixed from OAT3 data; for Change to passive diffusion clearance upon inclusion of 1% HSA: probenecid condition, preliminary experiments
T1 sequence (Q4U2R8 1-563): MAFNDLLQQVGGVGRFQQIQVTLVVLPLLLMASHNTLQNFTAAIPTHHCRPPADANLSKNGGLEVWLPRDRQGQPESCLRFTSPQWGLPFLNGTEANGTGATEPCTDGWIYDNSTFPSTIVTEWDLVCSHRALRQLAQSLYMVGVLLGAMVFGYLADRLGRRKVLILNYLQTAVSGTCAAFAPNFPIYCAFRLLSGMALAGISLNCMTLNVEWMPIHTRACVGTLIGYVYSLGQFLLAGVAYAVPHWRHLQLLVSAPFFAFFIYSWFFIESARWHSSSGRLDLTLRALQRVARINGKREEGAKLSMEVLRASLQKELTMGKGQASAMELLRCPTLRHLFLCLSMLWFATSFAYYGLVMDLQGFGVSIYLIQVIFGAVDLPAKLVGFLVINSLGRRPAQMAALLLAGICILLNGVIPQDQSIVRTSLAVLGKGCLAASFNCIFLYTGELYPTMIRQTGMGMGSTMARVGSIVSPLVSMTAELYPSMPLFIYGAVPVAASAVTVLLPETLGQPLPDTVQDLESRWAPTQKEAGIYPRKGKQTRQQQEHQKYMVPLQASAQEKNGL

OAT1/3 [1] = experiment: Bottom-up IVIVE of CLint,sec, CLsec and CLr, relative expression factor (REF) approach; set-up: species or system human; conditions: for CLint,sec Predicted 0% HSA / CLint,sec Predicted 1% HSA / CLint,sec Predicted 4% HSA / CLsec Predicted 0% HSA / CLsec Predicted 1% HSA / CLsec Predicted 4% HSA: REF approach
Text: (§1) The relative expression and relative activity factor (REF and RAF) are unitless scalers that account for in vivo versus in vitro differences in the abundance and activity of OAT1/3 and are used for IVIVE of in vitro CLint,u,active. REF was derived from the OAT1/3 expression ratio between the in vivo human kidney cortex to the in vitro ciPTEC-OAT1/3, as shown in eq 7: [drawing 8] 7 Absolute abundance of OAT1 and OAT3 in the human kidney cortex was previously quantified by our group using the filter-aided sample preparation protocol and global proteomic analysis.[44]

human serum albumin = human serum albumin (Homo sapiens, UniProt P02768); experiment: Extent of albumin binding: high throughput equilibrium dialysis (fu,inc, Kd); assay type: in vitro ADME; conditions: for Kd: estimated using eq 3 from measured fu,inc; for fraction unbound at 6 h: human
Sequence of human serum albumin (P02768 25-609): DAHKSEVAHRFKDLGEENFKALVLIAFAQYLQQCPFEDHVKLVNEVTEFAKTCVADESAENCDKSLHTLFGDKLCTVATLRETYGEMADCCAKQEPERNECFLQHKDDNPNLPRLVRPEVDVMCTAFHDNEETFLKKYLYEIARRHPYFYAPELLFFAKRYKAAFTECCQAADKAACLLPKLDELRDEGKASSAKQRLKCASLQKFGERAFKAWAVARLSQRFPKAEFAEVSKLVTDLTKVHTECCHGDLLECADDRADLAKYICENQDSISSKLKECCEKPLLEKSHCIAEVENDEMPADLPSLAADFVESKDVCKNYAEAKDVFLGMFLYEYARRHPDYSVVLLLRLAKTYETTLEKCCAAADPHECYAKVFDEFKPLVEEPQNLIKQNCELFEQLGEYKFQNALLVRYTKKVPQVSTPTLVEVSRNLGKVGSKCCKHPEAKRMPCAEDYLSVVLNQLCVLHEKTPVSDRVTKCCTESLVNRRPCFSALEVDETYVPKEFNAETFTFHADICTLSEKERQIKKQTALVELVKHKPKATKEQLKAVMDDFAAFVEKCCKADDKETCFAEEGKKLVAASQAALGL
Description: Briefly, cellulose membranes with MWCO of 12–14 kDa were submerged in distilled water for 1 h, followed by 20% ethanol/distilled water for at least 20 min. Prior to the start of the experiment, cellulose membranes were rinsed in distilled water and submerged in blank DPBS for 15 min. The HTDialysis device was assembled according to the manufacturer’s instructions (https://www.htdialysis.com). Blank DPBS was first added to the receiver side of the dialysis membranes, followed by DPBS spiked with HSA and the OAT1/3 substrate to the donor side. Each HSA concentration was tested in triplicates. The HTDialysis device was sealed with an adhesive sealing film and incubated in a water bath at 37 °C for 6 h shaken at 150 rpm. Once the assay was completed, aliquots from both receiver and donor wells were transferred to a 96-well plate and stored at −80 °C until analysis. DPBS spiked with the OAT1/3 substrate from both before and after incubation was stored to assess the recovery and stability of the samples. To prepare the sample for analysis, donor and receiver samples were matrix-matched and quenched with ice-cold acetonitrile containing an internal standard (0.5 μM gemfibrozil or 0.05 μM buspirone).

OAT1/3 [2] = experiment: Bottom-up IVIVE of CLint,sec, CLsec and CLr, relative activity factor (RAF) approach; set-up: species or system human
Text: as §1

OAT3 = molecular target: T2, OAT3 (Homo sapiens, UniProt Q8TCC7); experiment: OAT3 uptake study in ciPTEC-OAT3; conditions: for ratio of CLint,u,active (R) (HSA/control) 1%: OAT3, 1% HSA vs control; for ratio of CLint,u,active (R) (HSA/control) 4%: OAT3, 4% HSA vs control; for OAT3 substrate status (uptake in ciPTEC-OAT3): control vs probenecid 300 μM; for Vb,max OAT3, Active and Passive Uptake: eq 4 fitted to CLint,u; for Vb,max OAT3, Active and Passive Uptake / Vb,max OAT3, Active Uptake Only: mean ± S.D.; for Vb,max OAT3, Active Uptake Only: eq 4 fitted to CLint,u,active
T2 sequence (Q8TCC7 1-542): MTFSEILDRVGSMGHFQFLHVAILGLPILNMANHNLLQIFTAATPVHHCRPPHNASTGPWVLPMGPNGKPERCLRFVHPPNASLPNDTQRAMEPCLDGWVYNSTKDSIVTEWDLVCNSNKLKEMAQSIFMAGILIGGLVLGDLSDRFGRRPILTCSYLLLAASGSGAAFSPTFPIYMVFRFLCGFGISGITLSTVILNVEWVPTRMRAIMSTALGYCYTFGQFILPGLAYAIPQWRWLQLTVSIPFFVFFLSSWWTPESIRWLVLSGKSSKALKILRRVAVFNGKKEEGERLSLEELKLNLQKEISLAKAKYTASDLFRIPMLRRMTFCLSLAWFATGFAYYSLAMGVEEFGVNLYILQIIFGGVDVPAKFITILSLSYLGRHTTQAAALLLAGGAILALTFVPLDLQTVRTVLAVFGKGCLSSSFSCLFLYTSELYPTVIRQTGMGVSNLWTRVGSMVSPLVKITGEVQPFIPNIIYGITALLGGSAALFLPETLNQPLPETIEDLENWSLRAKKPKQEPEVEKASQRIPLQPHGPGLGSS

[3] = Observed in vivo (clinical) renal, secretion and intrinsic secretion clearance; conditions: in vivo; for CLint,sec Observed: back-calculated from clinical data; for CLsec Observed: plasma secretion clearance
[4] = in vivo, plasma renal clearance, clinical data; cited from earlier work
[5] = human, in vivo
[6] = 1% human serum albumin in DPBS, 1% HSA, equilibrium dialysis 37 °C 6 h, mean ± SD, read-out: fu,inc (1%)
[7] = 4% HSA in DPBS, 4% HSA, equilibrium dialysis 37 °C 6 h, mean ± SD, read-out: fu,inc (4%)

## Cc1ncc(CO)c(C(=O)O)c1O [4-pyridoxic acid]
OAT1; 0.5% HSA, total concentration constant at 10 µM, preliminary
  fold increase in OAT1 CLint,u,active versus control: 1.50 fold
OAT1; 0.5% HSA, unbound concentration constant at 1.0 µM
  fold increase in OAT1 CLint,u,active versus control: 1.50 fold
OAT1; 1.0% HSA, total concentration constant at 10 µM, preliminary
  fold increase in OAT1 CLint,u,active versus control: 1.82 fold
OAT1; 2.0% HSA, total concentration constant at 10 µM, preliminary
  fold increase in OAT1 CLint,u,active versus control: 0.93 fold
OAT1; 2.0% HSA, unbound concentration constant at 1.0 µM
  fold increase in OAT1 CLint,u,active versus control: 1.79 fold
OAT1; 4.0% HSA, total concentration constant at 10 µM, preliminary
  fold increase in OAT1 CLint,u,active versus control: 2.2 fold
OAT1
  ratio of CLint,u,active (R) (HSA/control) 1%: 1.92 ± 0.65
  ratio of CLint,u,active (R) (HSA/control) 4%: 3.46 ± 0.47
  OAT1 substrate status (uptake in ciPTEC-OAT1): dual OAT1/3 substrates
  Vb,max OAT1, Active and Passive Uptake: 222 ± 24.6 pmol/min/mg
  Vb,max OAT1, Active Uptake Only: 213 ± 24 pmol/min/mg
  Change to passive diffusion clearance upon inclusion of 1% HSA: minimal change
OAT1; listed as PDA
  ratio of CLint,u,active (R) (HSA/control) 1%: 1.92
  ratio of CLint,u,active (R) (HSA/control) 4%: 3.46
  Change to passive diffusion clearance upon inclusion of 1% HSA: minimal changes
OAT1; ciPTEC-OAT1, 300 µM probenecid
  unbound passive diffusion clearance (CLpd): 0.031 µL/min/mg
OAT1; ciPTEC-OAT1, 1.0% HSA + 300 µM probenecid
  unbound passive diffusion clearance (CLpd): 0.039 µL/min/mg
OAT1/3 [1]
  CLint,sec Predicted 0% HSA: 3.46 L/h
  CLint,sec Predicted 1% HSA: 7.85 L/h
  CLint,sec Predicted 4% HSA: 12.6 L/h
  CLsec Predicted 0% HSA: 0.29 L/h
  CLsec Predicted 1% HSA: 0.66 L/h
  CLsec Predicted 4% HSA: 1.05 L/h
OAT1/3 [1]; regardless of albumin inclusion and of RAF/REF approach
  Predicted CLr, CLsec and CLint,sec as % of observed: < 20%
Human serum albumin; mean ± SD
  Kd: 56.4 ± 2.5 µM
Human serum albumin; 0.5% HSA in DPBS, 0.5% HSA, mean ± S.D., read-out: fu,inc
  fraction unbound at 6 h: 0.4 ± 0.042
Human serum albumin; [6]
  fraction unbound at 6 h: 0.298 ± 0.005
Human serum albumin; 2% HSA in DPBS, 2% HSA, mean ± S.D., read-out: fu,inc
  fraction unbound at 6 h: 0.163 ± 0.005
Human serum albumin; [7]
  fraction unbound at 6 h: 0.079 ± 0.006
OAT1/3 [2]
  CLint,sec Predicted 0% HSA: 8.79 L/h
  CLint,sec Predicted 1% HSA: 22.1 L/h
  CLint,sec Predicted 4% HSA: 32.6 L/h
  CLsec Predicted 0% HSA: 0.74 L/h
  CLsec Predicted 1% HSA: 1.79 L/h
  CLsec Predicted 4% HSA: 2.57 L/h
OAT3
  ratio of CLint,u,active (R) (HSA/control) 1%: 2.64 ± 1.12
  ratio of CLint,u,active (R) (HSA/control) 4%: 3.85 ± 1.30
  OAT3 substrate status (uptake in ciPTEC-OAT3): dual OAT1/3 substrates
  Vb,max OAT3, Active and Passive Uptake: 53.1 ± 17.1 pmol/min/mg
  Vb,max OAT3, Active Uptake Only: 51.9 ± 15.8 pmol/min/mg
[3]
  CLint,sec Observed: 340 L/h
  CLsec Observed: 14.8 L/h
[4]
  CLr Observed: 15.6 L/h

## NS(=O)(=O)c1cc(C(=O)O)c(NCc2ccco2)cc1Cl [furosemide]
[5]
  CLsec Observed: 5.07 L/h
OAT3
  Vb,max OAT3, Active and Passive Uptake: 478 ± 139 pmol/min/mg
  Vb,max OAT3, Active Uptake Only: 453 ± 127 pmol/min/mg

## CCCc1nc(C(C)(C)O)c(C(=O)O)n1Cc1ccc(-c2ccccc2-c2nnn[nH]2)cc1 [olmesartan]
OAT1
  ratio of CLint,u,active (R) (HSA/control) 1%: 17.9 ± 4.0
  ratio of CLint,u,active (R) (HSA/control) 4%: 122 and 122 ± 42
  OAT1 substrate status (uptake in ciPTEC-OAT1): dual OAT1/3 substrates
  Vb,max OAT1, Active and Passive Uptake: 75.7 ± 15.5 pmol/min/mg
  Vb,max OAT1, Active Uptake Only: 72.7 ± 15.0 pmol/min/mg
OAT1/3 [1]; 4% HSA, REF scaler
  Predicted in vivo percentage transported via OAT1 (versus OAT3): 33.1%
OAT1/3 [1]
  CLint,sec Predicted 0% HSA: 7.92 L/h
  CLint,sec Predicted 1% HSA: 85.2 L/h
  CLint,sec Predicted 4% HSA: 284 L/h
  CLsec Predicted 0% HSA: 0.02 L/h
  CLsec Predicted 1% HSA: 0.22 L/h
  CLsec Predicted 4% HSA: 0.74 L/h
OAT1/3 [1]; control phase (0% HSA)
  Predicted in vivo percentage transported via OAT1 (versus OAT3): 7.9%
Human serum albumin; mean ± SD
  Kd: 1.43 ± 0.1 µM
Human serum albumin; [6]
  fraction unbound at 6 h: 0.011 ± 0.001
Human serum albumin; [7]
  fraction unbound at 6 h: 0.002 ± 0.0002
OAT1/3 [2]
  CLint,sec Predicted 0% HSA: 34.2 L/h
  CLint,sec Predicted 1% HSA: 355 L/h
  CLint,sec Predicted 4% HSA: 976 L/h
  CLsec Predicted 0% HSA: 0.09 L/h
  CLsec Predicted 1% HSA: 0.92 L/h
  CLsec Predicted 4% HSA: 2.40 L/h
OAT3
  ratio of CLint,u,active (R) (HSA/control) 1%: 10.5 ± 2.3
  ratio of CLint,u,active (R) (HSA/control) 4%: 28 and 28.1 ± 3.0
  OAT3 substrate status (uptake in ciPTEC-OAT3): dual OAT1/3 substrates
  Vb,max OAT3, Active and Passive Uptake: 46.2 ± 12.3 pmol/min/mg
  Vb,max OAT3, Active Uptake Only: 44.2 ± 12.3 pmol/min/mg
[3]
  CLint,sec Observed: 229 L/h
  CLsec Observed: 0.59 L/h
[3]; listed as Olmesartan
  CLint,sec Observed: 228 L/h
[4]
  CLr Observed: 0.61 L/h

## CCCN(CCC)S(=O)(=O)c1ccc(C(=O)O)cc1 [probenecid]
OAT3; probenecid 300 μM, 0% HSA
  Effect on OAT3-mediated uptake of the substrates: significantly reduced
